Laboratory results published in PMC8881512 (Nature Communications, 2022).
“And” between values parts separate entries of the source, which are not always exact repeats. Identical values can stand only once.

Columns and labels:
PKA = molecular target: T1, PKA (Homo sapiens, UniProt P17612); assay: Kinome profiling; assay type: biochemical; conditions: VT02956 (5 nM), read-out: % enzymatic activity relative to DMSO controls
T1 construct: LATS1/LATS2 enzymes from Signalchem

PKMYT1 = molecular target: T2, PKMYT1 (Homo sapiens, UniProt Q99640); assay: Kinome profiling; assay type: biochemical; conditions: VT02956 (5 nM)
T2 construct: LATS1/LATS2 enzymes from Signalchem

LATS2 [1] = molecular target: T3, LATS2 (Homo sapiens, UniProt Q9NRM7); assay: In vitro LATS2 kinase inhibition assay (HTRF); assay type: biochemical; set-up: key to LATS2 kinase activity: % inhibition = (HIGH − ratio)×100/(HIGH − LOW); conditions: for LATS2 kinase activity: Fig.5c; for IC50: in vitro, 6000 μM ATP, n = 2
T3 construct: purchased Signalchem
T3 sequence (Q9NRM7 1-1088): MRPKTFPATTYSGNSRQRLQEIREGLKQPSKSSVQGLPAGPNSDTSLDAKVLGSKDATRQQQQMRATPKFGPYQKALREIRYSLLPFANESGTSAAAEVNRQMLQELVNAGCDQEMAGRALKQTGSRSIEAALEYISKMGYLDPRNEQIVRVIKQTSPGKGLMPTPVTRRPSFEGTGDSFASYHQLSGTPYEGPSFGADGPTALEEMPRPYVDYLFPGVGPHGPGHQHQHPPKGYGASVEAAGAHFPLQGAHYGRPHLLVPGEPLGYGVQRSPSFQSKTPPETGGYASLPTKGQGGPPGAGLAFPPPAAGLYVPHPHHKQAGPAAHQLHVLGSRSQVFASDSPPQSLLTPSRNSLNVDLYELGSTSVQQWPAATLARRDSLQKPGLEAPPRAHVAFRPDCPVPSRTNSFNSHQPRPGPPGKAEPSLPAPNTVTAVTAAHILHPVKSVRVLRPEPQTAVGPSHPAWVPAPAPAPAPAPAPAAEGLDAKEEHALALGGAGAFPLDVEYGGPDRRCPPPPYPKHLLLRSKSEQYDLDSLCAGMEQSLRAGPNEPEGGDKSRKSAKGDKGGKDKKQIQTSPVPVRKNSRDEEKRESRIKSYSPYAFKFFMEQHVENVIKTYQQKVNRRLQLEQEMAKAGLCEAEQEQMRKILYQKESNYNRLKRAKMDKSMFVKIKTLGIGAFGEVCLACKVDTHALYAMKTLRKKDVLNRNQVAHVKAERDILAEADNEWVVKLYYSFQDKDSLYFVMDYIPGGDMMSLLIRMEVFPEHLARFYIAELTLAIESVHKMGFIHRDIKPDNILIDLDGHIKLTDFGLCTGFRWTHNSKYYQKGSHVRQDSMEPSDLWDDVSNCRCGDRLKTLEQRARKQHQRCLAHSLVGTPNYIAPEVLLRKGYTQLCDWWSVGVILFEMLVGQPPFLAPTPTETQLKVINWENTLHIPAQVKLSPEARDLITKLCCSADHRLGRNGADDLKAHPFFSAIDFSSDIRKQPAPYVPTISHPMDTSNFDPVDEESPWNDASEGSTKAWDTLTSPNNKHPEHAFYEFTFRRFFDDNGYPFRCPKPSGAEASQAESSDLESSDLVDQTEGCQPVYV
Procedure: The kinase activity of LATS1 and LATS2 were performed based on an adapted and optimised HTRF Kinase Binding assay (Cisbio). Briefly, the concentration-response curves with compound concentration range of 10,000 to 0.17 nM with 3-fold serial dilution and 1X Kinase enzymatic buffer (Cisbio), 1.2 nM LATS1 or LATS2 kinases (Signalchem), 0.5 μM biotinylation labelled YAP peptide (Vivace) were dispensed into 384-well microplates by automated digital dispenser Echo/POD with the final DMSO concentration in all wells at 0.5%. To start the enzymatic reaction, 3000 μM ATP (for LATS1) or 6000 μM ATP (for LATS2) were added using multidrop in a 10-μl volume and incubated for 90 min at 30 °C. Subsequently, 10 μl of HTRF KinEASE detection buffer (Cisbio) containing 31.25 nM acceptor conjugate (streptavidin-XL665) and 1:100 donor conjugate (TK antibody labelled with Eu^3+-Cryptate) mixture were added and incubated at RT for 60 min, and the fluorescence emission at two different wavelengths was measured (615 nm and 665 nm) on Envision. […] The inhibition was calculated by the formula, inhibition % = (HIGH − ratio) × 100/ (High − LOW). HIGH control stands for 0.5% DMSO with kinase and LOW control stands for 0.5% DMSO without kinase. The data was analysed by Xlfit software. The IC50 values were determined by fitting to a standard four-parameter logistic using GraphPad Prism.

KSR2 = molecular target: T4, KSR2 (Homo sapiens, UniProt Q6VAB6); assay: Kinome profiling; assay type: biochemical; conditions: VT02956 (5 nM), read-out: % enzymatic activity relative to DMSO controls
T4 construct: LATS1/LATS2 enzymes from Signalchem

[2] = system: Phospho-YAP (Ser127) in 4T1 cells; assay: Cellular Phospho-YAP HTRF assay, 4T1; assay type: cell-based; conditions: for YAP phosphorylation: 4T1, Fig.5d
CDK9/cyclin T2 = molecular target: T5, CDK9/cyclin T2 (Homo sapiens, UniProt P50750); assay: Kinome profiling; assay type: biochemical; conditions: VT02956 (5 nM), read-out: % enzymatic activity relative to DMSO controls
T5 construct: LATS1/LATS2 enzymes from Signalchem

MSK2/RPS6KA4 = molecular target: T6, MSK2/RPS6KA4 (Homo sapiens, UniProt O75676); assay: Kinome profiling; assay type: biochemical; conditions: VT02956 (5 nM), read-out: % enzymatic activity relative to DMSO controls
T6 construct: LATS1/LATS2 enzymes from Signalchem

TXK = molecular target: T7, TXK (Homo sapiens, UniProt P42681); assay: Kinome profiling; assay type: biochemical; conditions: VT02956 (5 nM), read-out: % enzymatic activity relative to DMSO controls
T7 construct: LATS1/LATS2 enzymes from Signalchem

HGK/MAP4K4 = molecular target: T8, HGK/MAP4K4 (Homo sapiens, UniProt O95819); assay: Kinome profiling; assay type: biochemical; conditions: VT02956 (5 nM), read-out: % enzymatic activity relative to DMSO controls
T8 construct: LATS1/LATS2 enzymes from Signalchem

BLK = molecular target: T9, BLK (Homo sapiens, UniProt P51451); assay: Kinome profiling; assay type: biochemical; conditions: VT02956 (5 nM), read-out: % enzymatic activity relative to DMSO controls
T9 construct: LATS1/LATS2 enzymes from Signalchem

STK38L/NDR2 = molecular target: T10, STK38L/NDR2 (Homo sapiens, UniProt Q9Y2H1); assay: Kinome profiling; assay type: biochemical; conditions: VT02956 (5 nM), read-out: % enzymatic activity relative to DMSO controls
T10 construct: LATS1/LATS2 enzymes from Signalchem

PKN1/PRK1 = molecular target: T11, PKN1/PRK1 (Homo sapiens, UniProt Q16512); assay: Kinome profiling; assay type: biochemical; conditions: VT02956 (5 nM), read-out: % enzymatic activity relative to DMSO controls
T11 construct: LATS1/LATS2 enzymes from Signalchem

LATS2 [3] = molecular target: T3, LATS2; assay: Kinome profiling; assay type: biochemical; conditions: VT02956 (5 nM)
p70S6Kb/RPS6KB2 = molecular target: T12, p70S6Kb/RPS6KB2 (Homo sapiens, UniProt Q9UBS0); assay: Kinome profiling; assay type: biochemical; conditions: VT02956 (5 nM), read-out: % enzymatic activity relative to DMSO controls
T12 construct: LATS1/LATS2 enzymes from Signalchem
T12 sequence (Q9UBS0 whole entry): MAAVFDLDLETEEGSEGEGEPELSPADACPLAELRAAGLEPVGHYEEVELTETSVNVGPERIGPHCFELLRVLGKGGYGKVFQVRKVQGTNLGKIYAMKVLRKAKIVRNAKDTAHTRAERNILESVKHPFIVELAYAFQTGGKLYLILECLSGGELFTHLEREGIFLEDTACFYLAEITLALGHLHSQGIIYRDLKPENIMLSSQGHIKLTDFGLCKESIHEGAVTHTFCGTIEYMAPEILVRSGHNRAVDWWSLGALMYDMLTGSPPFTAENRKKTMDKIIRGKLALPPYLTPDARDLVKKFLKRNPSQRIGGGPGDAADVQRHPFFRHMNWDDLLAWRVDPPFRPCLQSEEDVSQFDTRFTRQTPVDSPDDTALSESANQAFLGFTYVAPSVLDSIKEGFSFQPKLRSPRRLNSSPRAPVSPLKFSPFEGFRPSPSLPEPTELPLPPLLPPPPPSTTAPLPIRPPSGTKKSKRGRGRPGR

T8 sequence (O95819 whole entry): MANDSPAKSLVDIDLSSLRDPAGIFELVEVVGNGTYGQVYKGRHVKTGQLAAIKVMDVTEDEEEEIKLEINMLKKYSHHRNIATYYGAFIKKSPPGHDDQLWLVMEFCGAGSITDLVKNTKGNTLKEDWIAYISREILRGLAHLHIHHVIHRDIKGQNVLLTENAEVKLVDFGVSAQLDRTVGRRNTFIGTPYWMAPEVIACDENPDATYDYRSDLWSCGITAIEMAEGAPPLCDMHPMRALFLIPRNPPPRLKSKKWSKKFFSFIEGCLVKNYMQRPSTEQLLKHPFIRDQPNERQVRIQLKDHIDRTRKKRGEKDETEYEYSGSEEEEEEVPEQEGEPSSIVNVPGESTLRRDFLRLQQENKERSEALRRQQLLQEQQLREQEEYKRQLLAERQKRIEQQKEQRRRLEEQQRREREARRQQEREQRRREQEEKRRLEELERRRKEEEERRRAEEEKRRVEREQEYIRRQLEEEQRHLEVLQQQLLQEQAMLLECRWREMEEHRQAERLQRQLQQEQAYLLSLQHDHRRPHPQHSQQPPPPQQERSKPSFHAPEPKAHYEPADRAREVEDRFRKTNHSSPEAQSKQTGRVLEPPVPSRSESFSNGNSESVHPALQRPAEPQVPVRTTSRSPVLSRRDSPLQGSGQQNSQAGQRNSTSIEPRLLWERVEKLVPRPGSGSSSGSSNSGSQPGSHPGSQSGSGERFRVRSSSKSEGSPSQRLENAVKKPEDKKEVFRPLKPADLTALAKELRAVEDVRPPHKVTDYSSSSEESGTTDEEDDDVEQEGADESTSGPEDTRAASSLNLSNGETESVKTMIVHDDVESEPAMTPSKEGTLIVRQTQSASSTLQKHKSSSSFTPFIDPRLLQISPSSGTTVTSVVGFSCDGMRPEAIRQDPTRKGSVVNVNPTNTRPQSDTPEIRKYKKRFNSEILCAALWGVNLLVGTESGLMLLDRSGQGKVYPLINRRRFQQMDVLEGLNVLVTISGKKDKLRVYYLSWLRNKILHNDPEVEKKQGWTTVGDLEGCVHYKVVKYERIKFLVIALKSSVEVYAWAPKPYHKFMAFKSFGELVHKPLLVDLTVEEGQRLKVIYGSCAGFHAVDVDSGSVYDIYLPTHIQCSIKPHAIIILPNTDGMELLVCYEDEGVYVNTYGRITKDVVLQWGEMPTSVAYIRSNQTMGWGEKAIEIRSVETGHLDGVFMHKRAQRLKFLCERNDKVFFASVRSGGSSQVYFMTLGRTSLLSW
T2 sequence (Q99640 whole entry): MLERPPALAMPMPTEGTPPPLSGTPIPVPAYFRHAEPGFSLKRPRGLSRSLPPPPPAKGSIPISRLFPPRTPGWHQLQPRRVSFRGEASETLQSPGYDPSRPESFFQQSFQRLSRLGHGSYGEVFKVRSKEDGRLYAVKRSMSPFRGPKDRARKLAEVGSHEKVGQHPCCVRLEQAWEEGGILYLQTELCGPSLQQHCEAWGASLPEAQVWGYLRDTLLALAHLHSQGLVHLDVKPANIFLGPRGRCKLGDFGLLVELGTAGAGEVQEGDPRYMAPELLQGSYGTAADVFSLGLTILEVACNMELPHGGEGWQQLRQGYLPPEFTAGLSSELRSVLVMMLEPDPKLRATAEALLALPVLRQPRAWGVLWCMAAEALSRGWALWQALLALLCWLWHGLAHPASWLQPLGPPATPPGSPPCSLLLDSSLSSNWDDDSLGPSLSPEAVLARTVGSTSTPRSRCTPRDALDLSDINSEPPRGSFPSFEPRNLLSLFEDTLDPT
T11 sequence (Q16512 whole entry): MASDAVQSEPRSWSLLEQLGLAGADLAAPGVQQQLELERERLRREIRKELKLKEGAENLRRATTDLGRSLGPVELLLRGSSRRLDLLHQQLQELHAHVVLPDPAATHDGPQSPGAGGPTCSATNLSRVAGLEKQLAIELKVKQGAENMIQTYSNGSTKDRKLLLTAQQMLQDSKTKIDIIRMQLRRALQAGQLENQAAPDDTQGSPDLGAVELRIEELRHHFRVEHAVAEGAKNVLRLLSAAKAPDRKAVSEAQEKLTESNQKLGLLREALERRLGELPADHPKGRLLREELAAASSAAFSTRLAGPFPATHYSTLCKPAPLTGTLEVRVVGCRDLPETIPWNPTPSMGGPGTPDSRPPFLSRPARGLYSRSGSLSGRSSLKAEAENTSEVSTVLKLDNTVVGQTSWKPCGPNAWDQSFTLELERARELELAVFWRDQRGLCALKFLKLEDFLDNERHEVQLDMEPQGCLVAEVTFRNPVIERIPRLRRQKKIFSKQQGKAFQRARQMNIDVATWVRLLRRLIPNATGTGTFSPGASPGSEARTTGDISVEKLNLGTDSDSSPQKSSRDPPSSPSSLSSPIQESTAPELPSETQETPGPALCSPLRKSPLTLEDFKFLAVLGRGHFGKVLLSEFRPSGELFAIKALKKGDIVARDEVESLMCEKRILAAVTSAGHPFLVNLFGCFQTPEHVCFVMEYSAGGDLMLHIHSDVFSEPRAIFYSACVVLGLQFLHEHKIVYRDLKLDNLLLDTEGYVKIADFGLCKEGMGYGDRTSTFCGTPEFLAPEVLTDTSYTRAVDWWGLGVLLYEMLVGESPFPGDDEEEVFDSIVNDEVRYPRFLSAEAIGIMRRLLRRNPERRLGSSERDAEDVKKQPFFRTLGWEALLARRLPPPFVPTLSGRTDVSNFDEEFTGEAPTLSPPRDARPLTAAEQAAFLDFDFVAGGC
T9 sequence (P51451 whole entry): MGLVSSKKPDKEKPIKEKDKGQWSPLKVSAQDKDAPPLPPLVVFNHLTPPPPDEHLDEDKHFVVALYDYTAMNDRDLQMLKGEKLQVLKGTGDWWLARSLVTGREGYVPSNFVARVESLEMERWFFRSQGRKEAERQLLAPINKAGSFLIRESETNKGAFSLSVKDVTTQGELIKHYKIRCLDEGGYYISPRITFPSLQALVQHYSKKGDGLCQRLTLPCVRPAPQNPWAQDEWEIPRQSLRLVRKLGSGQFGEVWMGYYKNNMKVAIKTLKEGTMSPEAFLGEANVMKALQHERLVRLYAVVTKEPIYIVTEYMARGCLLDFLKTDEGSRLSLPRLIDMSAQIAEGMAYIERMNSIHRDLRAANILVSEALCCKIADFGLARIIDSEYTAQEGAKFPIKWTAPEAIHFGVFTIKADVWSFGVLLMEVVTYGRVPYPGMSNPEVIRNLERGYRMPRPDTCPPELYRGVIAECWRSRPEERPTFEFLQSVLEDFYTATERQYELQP
T10 sequence (Q9Y2H1 whole entry): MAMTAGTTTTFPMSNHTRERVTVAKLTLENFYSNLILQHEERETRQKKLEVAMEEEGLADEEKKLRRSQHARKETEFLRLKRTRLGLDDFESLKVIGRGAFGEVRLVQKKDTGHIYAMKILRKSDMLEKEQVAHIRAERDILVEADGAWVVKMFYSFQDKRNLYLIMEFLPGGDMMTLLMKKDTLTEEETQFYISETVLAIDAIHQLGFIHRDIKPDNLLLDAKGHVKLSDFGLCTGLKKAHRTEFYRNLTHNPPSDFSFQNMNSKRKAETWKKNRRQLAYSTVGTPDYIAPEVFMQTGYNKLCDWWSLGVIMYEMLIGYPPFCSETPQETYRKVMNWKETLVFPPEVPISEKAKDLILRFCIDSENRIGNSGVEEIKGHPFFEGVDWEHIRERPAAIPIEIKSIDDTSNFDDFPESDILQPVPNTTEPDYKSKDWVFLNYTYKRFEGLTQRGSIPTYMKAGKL
T7 sequence (P42681 whole entry): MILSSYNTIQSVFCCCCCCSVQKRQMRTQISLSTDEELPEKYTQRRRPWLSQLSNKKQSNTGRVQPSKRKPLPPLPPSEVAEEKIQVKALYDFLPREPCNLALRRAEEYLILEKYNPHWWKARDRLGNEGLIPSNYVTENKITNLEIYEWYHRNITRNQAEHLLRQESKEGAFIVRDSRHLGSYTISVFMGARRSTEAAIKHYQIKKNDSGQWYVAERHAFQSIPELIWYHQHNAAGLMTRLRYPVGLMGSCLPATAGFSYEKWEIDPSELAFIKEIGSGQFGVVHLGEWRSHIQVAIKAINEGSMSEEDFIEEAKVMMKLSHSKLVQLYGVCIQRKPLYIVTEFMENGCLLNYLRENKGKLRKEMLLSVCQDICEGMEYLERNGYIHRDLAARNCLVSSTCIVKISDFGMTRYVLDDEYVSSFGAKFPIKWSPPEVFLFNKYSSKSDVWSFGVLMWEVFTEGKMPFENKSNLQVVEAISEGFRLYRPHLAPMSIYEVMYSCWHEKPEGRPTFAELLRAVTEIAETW

## NCC1CCN(c2nc(-c3ccncc3)nc3c(C#CCO)cccc23)CC1 [VT02956]
PKA
  remaining activity at 0.005 µM: 68%
PKMYT1
  % enzymatic activity relative to DMSO controls: 77%
LATS2 [1]; Conc. 0.00016935 (µM)
  LATS2 kinase activity: 60.6319 and 66.1157
LATS2 [1]; Conc. 0.00050805 (µM)
  LATS2 kinase activity: 35.6649 and 36.636
LATS2 [1]; Conc. 0.00152416 (µM)
  LATS2 kinase activity: 7.393 and 7.887
LATS2 [1]
  IC50: 0.52 nM
KSR2
  remaining activity at 0.005 µM: 83%
[2]; Conc. 0.00457247 (µM)
  YAP phosphorylation: 95.8709 and 110.479
[2]; Conc. 0.0137174 (µM)
  YAP phosphorylation: 110.398 and 92.919
[2]; Conc. 0.0411523 (µM)
  YAP phosphorylation: 99.5656 and 109.183
[2]; Conc. 0.123457 (µM)
  YAP phosphorylation: 90.8642 and 77.798
[2]; Conc. 0.37037 (µM)
  YAP phosphorylation: 55.9969 and 62.3937
[2]; Mus musculus, 4T1 cells, read-out: YAP phosphorylation IC50
  IC50: 430 nM
CDK9/cyclin T2
  remaining activity at 0.005 µM: 74%
MSK2/RPS6KA4
  remaining activity at 0.005 µM: 78%
TXK
  remaining activity at 0.005 µM: 83%
HGK/MAP4K4
  remaining activity at 0.005 µM: 85%
BLK
  remaining activity at 0.005 µM: 78%
STK38L/NDR2
  remaining activity at 0.005 µM: 29%
PKN1/PRK1
  remaining activity at 0.005 µM: 69%
LATS2 [3]
  % enzymatic activity relative to DMSO controls: 34%
p70S6Kb/RPS6KB2
  remaining activity at 0.005 µM: 65%

## CCN(CC)c1nc(-c2ccncc2)nc2c(-c3ccc(Cl)cc3)cccc12 [VT02484]
LATS2 [1]; Conc. 0.00016935 (µM)
  LATS2 kinase activity: 96.8406 and 89.7881
LATS2 [1]; Conc. 0.00050805 (µM)
  LATS2 kinase activity: 86.8123 and 94.4369
LATS2 [1]; Conc. 0.00152416 (µM)
  LATS2 kinase activity: 95.4849 and 93.7686
LATS2 [1]; Conc. 0.00457247 (µM)
  LATS2 kinase activity: 92.5091 and 95.5041
LATS2 [1]; Conc. 0.0137174 (µM)
  LATS2 kinase activity: 94.4128 and 88.6006
LATS2 [1]; Conc. 0.0411523 (µM)
  LATS2 kinase activity: 86.8411 and 90.365
LATS2 [1]; Conc. 0.123457 (µM)
  LATS2 kinase activity: 93.2446 and 92.7206
LATS2 [1]; Conc. 0.37037 (µM)
  LATS2 kinase activity: 94.4513 and 95.1243
LATS2 [1]; Conc. 1.11111 (µM)
  LATS2 kinase activity: 88.3362 and 87.5718
LATS2 [1]; Conc. 3.33333 (µM)
  LATS2 kinase activity: 84.322 and 85.4373
LATS2 [1]; Conc. 10 (µM)
  LATS2 kinase activity: 81.6154 and 76.4186
LATS2 [1]
  IC50: > 10000 nM
